Assay results: ChEMBL document CHEMBL1201862, “PubChem BioAssay data set” (2004)
The source made the active and inactive calls.

Tests used:
[1] = Luminescence Cell-Based Dose Response to Identify Activators of Luciferase Translation or Activity in H4-C Neuroglioblastoma Cells. [Related pubchem assays: 1829 (Project Summary), 1814 (Primary HTS)]; type: functional
[2] = Luminescence Cell-Based Dose Confirmation to Identify Activators of 5'UTR Stem-Loop Driven Alpha-Synuclein mRNA Translation in H4 Neuroglioblastoma Cells. [Related pubchem assays: 1829 (Project Summary), 1814 (Primary HTS)]; type: functional
[3] = target: Heat shock protein HSP 90-alpha (Homo sapiens, UniProt P07900); assay: Luminescence-based dose response biochemical high throughput screening assay for inhibitors of the Heat Shock Protein 90 (HSP90). [Related pubchem assays: 1831 (Summary AID.), 1846 (Confirmation screen.), 1789 (Primary screen.)]
[4] = Luminescence Cell-Based Dose Confirmation HTS to Identify Activators of 5'UTR Stem-Loop Driven Alpha-Synuclein mRNA Translation in H4 Neuroglioblastoma Cells. [Related pubchem assays: 1829 (Project Summary), 1814 (Primary HTS)]; type: functional
[5] = Luminescence Cell-Based Dose Response HTS to Identify Activators of Luciferase Translation or Activity in H4 […] Cells. [Related pubchem assays: 1829 (Project Summary), 1814 (Primary HTS)]; type: functional
H4 = assay: Luminescence Cell-Based Dose Response HTS to Identify Activators of 5'UTR Stem-Loop Driven Prion Protein mRNA Translation in H4 Neuroglioblastoma Cells. [Related pubchem assays: 1829 (Project Summary), 1814 (Primary HTS)]; type: functional; conditions: Homo sapiens
[6] = Luminescence Cell-Based Dose Response to Identify Activators of 5'UTR Stem-Loop Driven Prion Protein mRNA Translation in H4-C Neuroglioblastoma Cells. [Related pubchem assays: 1829 (Project Summary), 1814 (Primary HTS)]; type: functional
[7] = M. tuberculosis growth inhibition, HTS (AID 449762); type: functional
[8] = target: E3 ubiquitin-protein ligase Mdm2 (Homo sapiens, UniProt Q00987); assay: MDM2-luc reporter signal enhancers, multi-concentration potency testing, MDM2 ubiquitin-protein ligase inhibitor program, whole-cell format, luminescence detection, 384-well microplate (AID 1394); type: functional;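 also: MDM2 E3 inhibitors raise luminescence so EC50 is for signal enhancement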
[9] = target: FAD-linked sulfhydryl oxidase ALR (Homo sapiens, UniProt P55789); assay: ALR-catalysed DTT oxidation blockers – biochemical, H2O2 detection, luminescence, cherry-pick, dose response (AID 493248)
[10] = target: Bifunctional protein GlmU (Mycobacterium tuberculosis, UniProt P9WMN3); assay: Inhibitors of Mycobacterial Glucosamine-1-phosphate acetyl transferase (GlmU). Secondary screen.; parameters: species or system Mycobacterium tuberculosis H37Rv
Cysteine protease ATG4B = target: T1, Cysteine protease ATG4B (Homo sapiens, UniProt Q9Y4P1); type: functional;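 also: Fluorescence-based dose-response confirmation assay measuring inhibition of ATG4B activity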
T1 sequence (Q9Y4P1 whole entry): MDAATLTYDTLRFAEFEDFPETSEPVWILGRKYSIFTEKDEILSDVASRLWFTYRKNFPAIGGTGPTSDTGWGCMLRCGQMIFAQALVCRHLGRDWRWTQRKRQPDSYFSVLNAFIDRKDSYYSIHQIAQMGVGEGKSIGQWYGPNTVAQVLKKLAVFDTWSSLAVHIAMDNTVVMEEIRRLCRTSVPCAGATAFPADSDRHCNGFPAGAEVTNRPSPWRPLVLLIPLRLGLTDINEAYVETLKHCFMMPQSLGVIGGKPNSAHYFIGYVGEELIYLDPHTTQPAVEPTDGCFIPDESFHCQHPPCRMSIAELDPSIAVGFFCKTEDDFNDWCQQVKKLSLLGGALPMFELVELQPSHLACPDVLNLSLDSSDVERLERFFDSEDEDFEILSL

[11] = target: T2, Peroxisome proliferator-activated receptor gamma/Nuclear receptor corepressor 2 (Homo sapiens, UniProt P37231+Q9Y618); type: functional
T2 sequence (P37231 whole entry): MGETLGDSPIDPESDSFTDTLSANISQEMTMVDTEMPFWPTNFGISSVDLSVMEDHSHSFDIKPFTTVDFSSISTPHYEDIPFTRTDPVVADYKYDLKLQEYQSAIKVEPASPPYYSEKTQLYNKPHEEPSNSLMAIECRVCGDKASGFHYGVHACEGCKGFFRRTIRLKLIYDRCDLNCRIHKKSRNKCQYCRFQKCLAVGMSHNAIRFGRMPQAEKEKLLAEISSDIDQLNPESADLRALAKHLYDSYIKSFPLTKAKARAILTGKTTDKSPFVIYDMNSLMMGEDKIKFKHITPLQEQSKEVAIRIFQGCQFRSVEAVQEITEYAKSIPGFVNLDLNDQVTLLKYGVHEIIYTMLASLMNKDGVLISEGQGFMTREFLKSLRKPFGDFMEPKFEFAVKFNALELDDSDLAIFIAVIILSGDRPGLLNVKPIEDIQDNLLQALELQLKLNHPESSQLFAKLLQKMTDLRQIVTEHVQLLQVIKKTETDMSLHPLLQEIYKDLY
T2 sequence (Q9Y618 whole entry): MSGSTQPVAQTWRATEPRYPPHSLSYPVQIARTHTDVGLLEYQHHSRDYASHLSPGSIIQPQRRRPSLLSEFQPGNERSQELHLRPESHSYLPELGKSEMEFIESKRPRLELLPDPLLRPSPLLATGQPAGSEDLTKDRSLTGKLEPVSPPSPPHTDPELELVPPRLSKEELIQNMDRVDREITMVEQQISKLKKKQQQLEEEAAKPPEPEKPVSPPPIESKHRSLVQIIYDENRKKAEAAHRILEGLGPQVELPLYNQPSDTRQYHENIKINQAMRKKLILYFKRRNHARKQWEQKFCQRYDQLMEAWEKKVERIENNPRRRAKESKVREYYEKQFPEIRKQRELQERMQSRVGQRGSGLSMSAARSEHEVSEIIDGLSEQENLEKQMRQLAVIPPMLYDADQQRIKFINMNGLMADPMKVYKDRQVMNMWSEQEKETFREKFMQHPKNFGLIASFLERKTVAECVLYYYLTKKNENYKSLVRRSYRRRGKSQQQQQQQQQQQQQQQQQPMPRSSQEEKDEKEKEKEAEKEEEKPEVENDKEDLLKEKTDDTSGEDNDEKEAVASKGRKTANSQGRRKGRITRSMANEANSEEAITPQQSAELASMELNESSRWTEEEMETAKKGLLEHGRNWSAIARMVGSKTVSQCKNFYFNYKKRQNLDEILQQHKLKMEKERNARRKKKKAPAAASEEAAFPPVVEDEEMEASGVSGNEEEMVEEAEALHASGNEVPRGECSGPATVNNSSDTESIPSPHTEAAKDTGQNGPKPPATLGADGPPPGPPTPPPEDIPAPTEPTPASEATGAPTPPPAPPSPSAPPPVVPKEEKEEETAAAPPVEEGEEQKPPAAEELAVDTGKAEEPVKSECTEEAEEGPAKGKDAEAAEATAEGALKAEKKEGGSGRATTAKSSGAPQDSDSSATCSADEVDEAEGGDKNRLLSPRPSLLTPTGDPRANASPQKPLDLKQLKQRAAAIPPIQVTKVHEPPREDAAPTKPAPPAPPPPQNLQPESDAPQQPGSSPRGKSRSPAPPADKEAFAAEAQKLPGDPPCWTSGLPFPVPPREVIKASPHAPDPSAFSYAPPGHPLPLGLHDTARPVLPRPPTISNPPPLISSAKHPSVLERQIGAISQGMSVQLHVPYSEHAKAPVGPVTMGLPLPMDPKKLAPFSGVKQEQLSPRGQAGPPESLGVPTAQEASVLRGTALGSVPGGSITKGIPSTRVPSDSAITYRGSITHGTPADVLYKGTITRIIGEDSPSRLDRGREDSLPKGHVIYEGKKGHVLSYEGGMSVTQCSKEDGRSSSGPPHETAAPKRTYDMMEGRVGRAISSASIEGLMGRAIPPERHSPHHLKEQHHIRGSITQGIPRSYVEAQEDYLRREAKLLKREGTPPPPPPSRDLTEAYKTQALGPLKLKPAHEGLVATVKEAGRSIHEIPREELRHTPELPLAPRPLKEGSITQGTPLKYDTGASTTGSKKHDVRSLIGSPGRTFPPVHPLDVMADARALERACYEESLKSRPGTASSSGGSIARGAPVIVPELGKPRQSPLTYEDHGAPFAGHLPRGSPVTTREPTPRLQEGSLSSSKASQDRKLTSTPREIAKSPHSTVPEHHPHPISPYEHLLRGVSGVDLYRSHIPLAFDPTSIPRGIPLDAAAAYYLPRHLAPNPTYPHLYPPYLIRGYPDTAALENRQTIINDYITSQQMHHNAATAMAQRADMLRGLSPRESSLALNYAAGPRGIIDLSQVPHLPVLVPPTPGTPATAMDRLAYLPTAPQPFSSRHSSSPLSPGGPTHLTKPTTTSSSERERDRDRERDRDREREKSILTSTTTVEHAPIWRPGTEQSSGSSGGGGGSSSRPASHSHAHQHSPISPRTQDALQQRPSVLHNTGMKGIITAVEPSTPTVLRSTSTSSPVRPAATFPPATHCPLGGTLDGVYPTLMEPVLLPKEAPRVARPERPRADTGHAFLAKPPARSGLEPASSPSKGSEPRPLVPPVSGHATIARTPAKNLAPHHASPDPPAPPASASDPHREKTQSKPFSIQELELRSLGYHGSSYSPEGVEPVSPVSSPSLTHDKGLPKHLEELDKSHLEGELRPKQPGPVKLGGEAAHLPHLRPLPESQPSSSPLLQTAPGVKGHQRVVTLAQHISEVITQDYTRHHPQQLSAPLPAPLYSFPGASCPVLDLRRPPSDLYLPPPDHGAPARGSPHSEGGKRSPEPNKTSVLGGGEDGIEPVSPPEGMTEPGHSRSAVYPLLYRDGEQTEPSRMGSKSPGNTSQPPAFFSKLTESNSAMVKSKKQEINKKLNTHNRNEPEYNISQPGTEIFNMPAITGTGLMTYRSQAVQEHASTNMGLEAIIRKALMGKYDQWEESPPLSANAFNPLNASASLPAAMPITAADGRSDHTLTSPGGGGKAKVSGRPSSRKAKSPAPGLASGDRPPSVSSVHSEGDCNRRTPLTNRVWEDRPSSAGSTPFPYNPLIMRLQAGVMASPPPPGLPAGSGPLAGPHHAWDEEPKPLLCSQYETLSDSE

Estrogen receptor = target: T3, Estrogen receptor (Homo sapiens, UniProt P03372);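 also: potency for inhibiting coactivator peptide recruitment to the receptor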
T3 sequence (P03372 whole entry): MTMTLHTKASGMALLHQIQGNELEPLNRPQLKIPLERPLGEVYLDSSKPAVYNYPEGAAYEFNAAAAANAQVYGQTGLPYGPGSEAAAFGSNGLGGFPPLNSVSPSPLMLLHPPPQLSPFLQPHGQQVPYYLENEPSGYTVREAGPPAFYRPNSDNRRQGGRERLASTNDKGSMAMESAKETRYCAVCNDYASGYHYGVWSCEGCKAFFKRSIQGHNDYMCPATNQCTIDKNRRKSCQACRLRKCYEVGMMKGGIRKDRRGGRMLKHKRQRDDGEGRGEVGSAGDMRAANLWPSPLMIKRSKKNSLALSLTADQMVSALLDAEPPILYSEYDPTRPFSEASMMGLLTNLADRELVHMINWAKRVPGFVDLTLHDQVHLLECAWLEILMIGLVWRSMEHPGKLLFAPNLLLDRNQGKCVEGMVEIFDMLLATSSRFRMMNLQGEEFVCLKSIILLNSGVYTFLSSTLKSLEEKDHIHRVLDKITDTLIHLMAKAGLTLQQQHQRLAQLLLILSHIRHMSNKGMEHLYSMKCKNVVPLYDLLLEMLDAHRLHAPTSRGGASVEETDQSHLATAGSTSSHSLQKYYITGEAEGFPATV

[12] = target: T4, Photoreceptor-specific nuclear receptor (Homo sapiens, UniProt Q9Y5X4); type: functional;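 also: potency for compounds that break the NR2E3 corepressor complex and count as activators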
T4 sequence (Q9Y5X4 whole entry): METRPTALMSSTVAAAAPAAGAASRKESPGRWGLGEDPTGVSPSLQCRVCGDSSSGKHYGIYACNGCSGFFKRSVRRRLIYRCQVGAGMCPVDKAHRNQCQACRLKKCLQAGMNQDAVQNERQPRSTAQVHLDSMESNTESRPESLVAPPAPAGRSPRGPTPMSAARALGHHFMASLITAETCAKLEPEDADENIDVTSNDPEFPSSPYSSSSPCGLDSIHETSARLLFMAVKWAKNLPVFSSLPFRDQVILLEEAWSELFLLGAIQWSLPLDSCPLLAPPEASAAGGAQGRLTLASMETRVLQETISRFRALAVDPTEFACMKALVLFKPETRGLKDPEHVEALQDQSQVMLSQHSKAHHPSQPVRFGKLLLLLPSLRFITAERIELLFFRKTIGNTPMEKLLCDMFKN

Estrogen receptor beta [13] = target: T5, Estrogen receptor beta (Homo sapiens, UniProt Q92731); assay: blockers of SRC-3 recruitment to ERβ – biochemical, ELISA, streptavidin-HRP readout, orthogonal assay, confirmation (AID 1060)
[14] = IC50 of Artemis nuclease activity blockers – biochemical, fluorescence intensity, dose response (AID 720701); type: functional;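 also: Artemis endonuclease enzyme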
Phospholipase A2 = Phospholipase A2 (Homo sapiens, UniProt P04054); type: functional;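 also: confirmatory dose-response counterscreen on phospholipase A2, testing hits that came from an ultra-high-throughput screen for ATG4B inhibitors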
Phospholipase A2, sequence (P04054 whole entry): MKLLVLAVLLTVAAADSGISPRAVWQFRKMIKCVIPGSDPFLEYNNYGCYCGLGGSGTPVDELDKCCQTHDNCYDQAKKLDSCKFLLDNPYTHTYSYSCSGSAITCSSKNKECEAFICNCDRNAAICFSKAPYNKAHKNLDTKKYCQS

Large T antigen = Large T antigen (Simian virus 40, UniProt P03070); type: functional, Betapolyomavirus macacae;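 also: Confirmatory-stage PubChem screen for compounds that inhibit SV40 T antigen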
Estrogen receptor beta [15] = target: T5, Estrogen receptor beta
[16] = target: Protein-tyrosine kinase 2-beta (Homo sapiens, UniProt Q14289);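 also: potency of inhibitors of PYK2 kinase phosphorylation of poly-GT substrate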
Protein-tyrosine kinase 2-beta, sequence (Q14289 whole entry): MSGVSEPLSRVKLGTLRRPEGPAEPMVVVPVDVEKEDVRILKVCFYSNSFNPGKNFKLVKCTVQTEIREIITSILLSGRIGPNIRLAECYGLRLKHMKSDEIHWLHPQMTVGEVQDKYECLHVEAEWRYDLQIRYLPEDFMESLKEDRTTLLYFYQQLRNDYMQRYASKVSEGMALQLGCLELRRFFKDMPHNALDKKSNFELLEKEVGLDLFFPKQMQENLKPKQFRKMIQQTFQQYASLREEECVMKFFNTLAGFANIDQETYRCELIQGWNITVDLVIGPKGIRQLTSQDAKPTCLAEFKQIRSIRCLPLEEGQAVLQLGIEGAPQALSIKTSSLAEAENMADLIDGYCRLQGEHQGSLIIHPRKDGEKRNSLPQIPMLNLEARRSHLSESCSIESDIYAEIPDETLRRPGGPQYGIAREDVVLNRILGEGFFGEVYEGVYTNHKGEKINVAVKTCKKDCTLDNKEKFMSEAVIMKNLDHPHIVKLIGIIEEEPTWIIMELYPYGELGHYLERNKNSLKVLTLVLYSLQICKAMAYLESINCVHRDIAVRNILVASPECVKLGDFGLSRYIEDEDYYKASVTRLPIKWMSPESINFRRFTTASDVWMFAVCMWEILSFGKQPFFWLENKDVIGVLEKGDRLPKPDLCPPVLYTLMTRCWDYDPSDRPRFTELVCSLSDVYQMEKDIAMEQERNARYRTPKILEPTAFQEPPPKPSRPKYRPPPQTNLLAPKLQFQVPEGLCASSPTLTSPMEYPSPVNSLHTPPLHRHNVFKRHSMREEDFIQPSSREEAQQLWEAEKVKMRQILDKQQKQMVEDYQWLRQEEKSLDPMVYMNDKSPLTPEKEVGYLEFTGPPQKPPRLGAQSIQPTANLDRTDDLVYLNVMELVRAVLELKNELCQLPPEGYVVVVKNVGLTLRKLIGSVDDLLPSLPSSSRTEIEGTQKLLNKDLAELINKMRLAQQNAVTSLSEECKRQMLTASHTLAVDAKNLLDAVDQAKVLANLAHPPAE

[17] = target: Peroxisome proliferator-activated receptor gamma/Nuclear receptor coactivator 2 (Homo sapiens, UniProt P37231); assay: (§1) TR-FRET dose response biochemical High Throughput Screening assay for agonists of the steroid receptor coactivator 2 (SRC-2) recruitment by the peroxisome proliferator-activated receptor gamma (PPAR gamma): non-selective agonists. [Related pubchem assays: 1297, 1032 ]; type: functional
[18] = target: T4, Photoreceptor-specific nuclear receptor; assay: ligands suppressing NR2E3 nuclear receptor activity – biochemical, TR-FRET, dose response (AID 463256); type: functional
[19] = target: T2, Peroxisome proliferator-activated receptor gamma/Nuclear receptor corepressor 2; assay: Counterscreen for NR2E3 inverse agonists: TR-FRET-based biochemical high throughput dose response assay to identify inverse agonists of the interaction between peroxisome proliferator-activated receptor gamma (PPARg) and nuclear receptor co-repressor 2 (NCOR2).; type: functional
[20] = target: Peroxisome proliferator-activated receptor gamma/Nuclear receptor coactivator 1 (Homo sapiens, UniProt P37231); assay: as §1, with “1 (SRC-1)” for “2 (SRC-2)”, “assays (depositor defined):AID1300, AID1808, AID504735, AID631]” for “assays: 1297, 1032 ]”; type: protein assay
[21] = target: Peroxisome proliferator-activated receptor gamma/Nuclear receptor coactivator 3 (Homo sapiens, UniProt P37231); assay: as §1, with “3 (SRC-3)” for “2 (SRC-2)”, “1301 (Confirmation screen.), 1048 (Primary screen.)]” for “1297, 1032 ]”; type: functional
[22] = target: Mitogen-activated protein kinase 10 (Homo sapiens, UniProt P53779); assay: Dose response biochemical screening assay for inhibitors of c-Jun N-Terminal Kinase 3 (JNK3). [Related pubchem assays: 746 ]
Cytochrome P450 3A4 = Cytochrome P450 3A4 (Homo sapiens, UniProt P08684);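 also: CYP3A4 tested as one member of a cytochrome P450 panel screen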
Cytochrome P450 3A4, sequence (P08684 whole entry): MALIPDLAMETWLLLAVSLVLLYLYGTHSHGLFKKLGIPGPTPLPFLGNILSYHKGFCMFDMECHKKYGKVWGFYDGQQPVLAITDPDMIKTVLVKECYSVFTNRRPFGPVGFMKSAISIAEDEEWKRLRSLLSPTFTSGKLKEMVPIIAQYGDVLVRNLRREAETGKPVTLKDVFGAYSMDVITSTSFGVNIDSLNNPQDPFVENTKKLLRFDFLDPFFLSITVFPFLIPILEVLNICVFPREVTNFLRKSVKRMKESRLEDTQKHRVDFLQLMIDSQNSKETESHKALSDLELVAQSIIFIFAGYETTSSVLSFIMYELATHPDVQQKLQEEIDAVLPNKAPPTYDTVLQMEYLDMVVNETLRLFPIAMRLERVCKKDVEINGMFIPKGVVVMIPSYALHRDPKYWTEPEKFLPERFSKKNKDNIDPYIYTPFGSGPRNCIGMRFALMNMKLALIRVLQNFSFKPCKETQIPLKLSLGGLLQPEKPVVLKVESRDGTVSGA

Cytochrome P450 2D6 = Cytochrome P450 2D6 (Homo sapiens, UniProt P10635);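 also: CYP2D6 member of a cytochrome P450 panel assay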
Streptococcus = assay: GAS UMAA2166 growth inhibition – luminescence, BacTiterGlo, counter-screen for streptokinase expression inhibitor project, dose response (AID 1915); type: functional, organism-based;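 also: potency for reduction of bacterial viability or growth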
[23] = test system: Streptococcus sp. 'group A'; assay: Streptococcus pyogenes SK(-)GAS viability under kanamycin – luminescence, BacTiterGlo, confirmation, counter-screen for streptokinase expression inhibitor project, dose response (AID 1900); type: functional, organism-based
[24] = target: Sphingosine 1-phosphate receptor 2 (Homo sapiens, UniProt O95136); assay: Dose Response Cell Based Assay for Antagonists of the S1P2 Receptor. [Related pubchem assays: 856, 736 ]; type: functional
Streptokinase A = target: T6, Streptokinase A (Streptococcus pyogenes serotype M1, UniProt P10520); assay: viability-normalized secreted streptokinase activity reduction – plasminogen activation absorbance, OD405, dose response (AID 1914); type: functional, Streptococcus pyogenes M1 GAS;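 also: secreted streptokinase activity via plasminogen activation per viability signal from cell pellet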
T6 sequence (P10520 whole entry): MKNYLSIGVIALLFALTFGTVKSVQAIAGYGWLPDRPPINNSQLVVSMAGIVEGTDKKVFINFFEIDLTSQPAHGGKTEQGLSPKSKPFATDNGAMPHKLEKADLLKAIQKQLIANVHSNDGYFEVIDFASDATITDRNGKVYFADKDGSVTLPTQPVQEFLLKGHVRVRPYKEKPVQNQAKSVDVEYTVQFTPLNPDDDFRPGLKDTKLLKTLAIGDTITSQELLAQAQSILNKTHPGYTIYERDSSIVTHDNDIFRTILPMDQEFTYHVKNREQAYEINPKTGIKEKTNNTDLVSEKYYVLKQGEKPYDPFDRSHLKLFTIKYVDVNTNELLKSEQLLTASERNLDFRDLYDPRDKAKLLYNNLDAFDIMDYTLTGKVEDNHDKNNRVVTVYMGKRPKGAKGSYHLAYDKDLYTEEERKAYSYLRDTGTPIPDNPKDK

Ephrin type-A receptor 4 = Ephrin type-A receptor 4 (Mus musculus, UniProt Q03137); assay: EphA4 ligand-binding antagonists – biochemical, colorimetric, mouse EphA4, primary screen (AID 689); type: functional

## CCOC(=O)c1sc(NC(=O)c2ccc(C)o2)nc1C
[1]
  EC50: 0.421 µM (active)
[2]
  EC50: 0.793 µM (active)
[3]
  IC50: 6.55 µM (active)
[4]
  EC50: 0.306 µM (active)
[5]
  EC50: < 0.1 µM (inconclusive)
H4
  EC50: 3.76 µM (active)
[6]
  EC50: 0.541 µM (active)

## O=C(N/N=C/c1c(F)c(F)c(F)c(F)c1F)c1cccc(S(=O)(=O)N2CCOCC2)c1
[7]
  IC50: > 100 µM (active)

## COc1ccc(OC)c(CNn2c(-c3ccccc3F)nc3ccccc3c2=O)c1
[8]
  EC50: 85 µM (not active)

## O=C(O)c1cc(-c2ccco2)nc2ccc(Br)cc12
[9]
  AC50: 0.785 µM (active)
[10]
  IC50: 81.9 µM (active)
Cysteine protease ATG4B
  IC50: 9.96 µM (active)
[11]
  IC50: 1.38 µM (active)
Estrogen receptor
  IC50: 47.6 µM (not active)
[12]
  IC50: > 39.8 µM (not active)
Estrogen receptor beta [13]
  IC50: < 0.023 µM (not active)
[14]
  IC50: > 20 µM (inactive)
Phospholipase A2
  IC50: 12.2 µM (active)
Large T antigen
  IC50: 78.6 µM (active)
Estrogen receptor beta [15]
  IC50: 9.82 µM (active)

## COc1ccc(C(=O)Nc2nc3ccc4nc(C)sc4c3s2)cc1
[16]
  IC50: 1.45 µM (active)
[17]
  EC50: 37.9 µM (not active)
[18]
  IC50: 0.862 µM (active)
[19]
  IC50: 2.19 µM (active)
[20]
  EC50: 45.2 µM (inactive)
[21]
  EC50: 58.7 µM (not active)

## CCOC(=O)c1cccc2c1-c1ccccc1/C2=N/O
[16]
  IC50: 7.48 µM (active)
[22]
  IC50: 11.5 µM (not active)
Cytochrome P450 3A4
  AC50: 28.2 µM (inconclusive)
Cytochrome P450 2D6
  AC50: inconclusive

## Cc1nn(-c2ccccc2)c2c1C(c1ccc(O)c(O)c1)N1C(=N2)C(Nc2ccccc2)=Nc2ccccc21 (stereo unspecified)
Streptococcus
  EC50: 5.88 µM (active)
[23]
  EC50: 0.772 µM (active)
Cytochrome P450 3A4
  AC50: 14.1 µM (inconclusive)
[24]
  IC50: 4.68 µM (active)
Streptokinase A
  EC50: 1.53 µM (active)

## Cc1occc1-c1nnc(SCC(=O)Nc2ccccc2-c2ccccc2)n1C
Ephrin type-A receptor 4
  IC50: > 100 µM (not active)
